Assay results reported in US11413321B2, “Pharmaceutical composition for use in increasing hair, modifying scalp or skin, healing a wound, promoting osteogenesis, or modifying hair” (priority 2017, dated 2022).

Legend:
Format in all cases: in vivo, Wistar rat
CD68-positive cells [1] = test: Immunohistological staining of rat dorsal skin after forced oral lactoferrin (CD68); settings: 300 mg oral once a day, eight weeks after administration, n=3; FIG. 9
Protocol: (§1) As a comparative test, lactoferrin was administered instead of milk, and whether the number of CD68-positive cells and the number of PPAR-γ-positive cells increased or not was examined. As lactoferrin, three tablets of Nice rim essence 62971 (manufactured by Lion Corporation) corresponding to 300 mg of active lactoferrin (amount ingested per day by a human) were orally administered to a 12-week-old Wistar rat (n=3). Administration was performed once a day with the tablets injected (forcedly ingested) into the stomach using a feeding needle. Eight weeks after administration, a paraffin-embedded section of the dorsal skin was prepared by a conventional method, and subjected to immunohistological staining.

PPAR-γ-positive cells [2] = test: Immunohistological staining of rat dorsal skin after forced oral lactoferrin (PPAR-γ); settings: 300 mg oral once a day, eight weeks after administration, n=3; FIG. 9
Protocol: as §1

[3] = system: full-thickness skin defect; test: Wound healing score, circular full-thickness skin defect on the dorsal part
Protocol: Formation of wounds: hair on the dorsal part of a 12-week-old Wistar rat was shaven with hair clippers, and a circular full-thickness skin defect with a diameter of 8 mm was produced on each of the left and right sides of the head and the left and right sides of the tail. The full-thickness skin defect was formed at four locations per body.
Administration of milk: 20 μL of milk was subcutaneously injected at each of four locations, namely upper, lower, left and right, in a place 4 mm away from the peripheral edge of the wound. As the milk, the commercially available bovine milk sterilized by heating (at 130 degrees for 2 seconds and 65 degrees for 30 minutes) as described in Example 1 was used.
Administration of fatty acid: As a fatty acid contained in the milk, sterile purified water (administration liquid) containing palmitic acid, stearic acid, myristic acid, linolenic acid, α-linoleic acid and oleic acid, respectively was administered. Here, the water was heated and administered for the saturated fatty acids, and the water was administered at room temperature for the unsaturated fatty acids. 20 μL of the administration liquid (containing 1 mg of the fatty acid) was subcutaneously administered at each of four locations, namely upper, lower, left and right, in a place 4 mm away from the peripheral edge of the wound.
Score 4: The reduction ratio of the area of the wound site is 70% or more.
Score 3: The reduction ratio of the area of the wound site is 50% or more and less than 70%.
Score 2: The reduction ratio of the area of the wound site is 20% or more and less than 50%.
Score 1: The reduction ratio of the area of the wound site is less than 20%.
The result was given as a ratio obtained by dividing the above score by the score for physiological saline.
Two tubes of 8 mL of commercially available milk sterilized at a low temperature (65 degrees for 30 minutes) were centrifuged by a centrifugal separator (2600 g×6 minutes), 2 mL of one fourth of the supernatant exclusive of a whip portion was collected from each tube, the two collected liquids were combined to obtain 4 mL of a liquid, and 4 mL of the resulting liquid was stirred, and used for experiments (hereinafter, the obtained sample is referred to as a “centrifuged sample”). The obtained centrifuged sample was administered to the wound site at a dosage of 20 μL per location in the same manner as described above. The results are shown in “Centrifuged Sample” in FIG. 6A.
Next, a wound healing-promoting effect of lactoferrin was examined. As lactoferrin, Nice rim essence 62971 (trade name) purchased from Lion Corporation was used and administered at one location in an amount of 20 μg or 60 μg in the same manner as described above. Specifically, the lactoferrin was ground, and then thoroughly dissolved in purified water. The lactoferrin concentration was adjusted so that an injection amount of 20 μL included the above administration amount. The result was given as a value obtained by dividing each of scores after seven days and after ten days by the score for the physiological saline administration group.

CD68-positive cells [4] = test: Immunohistological staining of rat dorsal skin after injection of fatty acids (CD68); settings: 1 mg fatty acid in 20 μL per location; for number of CD68-positive cells (overall statement): a weak effect was observed overall
Protocol: (§2) Next, representative fatty acids contained in milk were administered to a 12-week-old Wistar rat at a plurality of locations on the dorsal skin as in Example 1(2) above, and a change in tissues by the administration was observed after the tissues were subjected to immunohistological staining. More specifically, physiological saline was administered in an amount of 20 μL per location, an administration liquid containing 1 mg of a fatty acid was administered in an amount of 20 μL per location, and a change in CD68-positive macrophage stained images and PPAR-γ-positive cell images by the administration was observed. Samples of the Wistar rat were obtained by sampling administration sites (four weeks after administration and eight weeks after administration). FIGS. 10A to 10G show the results. […] At saturated fatty acid injection sites, infiltration of a large number of CD68-positive cells was observed, and fibrillization of normal tissues was observed. Therefore, in FIGS. 10B to 10D, a change in fat tissues was examined at a location which was closest to the administration site and where normal tissues were maintained (non-fibrillization location).

PPAR-γ-positive cells [5] = test: Immunohistological staining of rat dorsal skin after injection of fatty acids (PPAR-γ); settings: 1 mg fatty acid in 20 μL per location; for number of PPAR-γ-positive cells at the administration site: four weeks after administration, vs physiological saline, FIGS. 10B-10G; for increase in the number of PPAR-γ-positive cells at the administration site: eight weeks after administration
Protocol: as §2

[6] = eight weeks after administration
[7] = four weeks after administration, vs physiological saline
[8] = 20 μL administration liquid containing 1 mg of the fatty acid at each of four locations, FIG. 6C

| Compound | number of CD68-positive cells in dorsal skin (CD68-positive cells [1]) | number of PPAR-γ-positive cells in dorsal skin (PPAR-γ-positive cells [2]) | wound healing-promoting effect (score divided by the score for physiological saline) ([3]; 20 μg or 60 μg per location in 20 μL, after seven days and after ten days, FIG. 6B) | number of CD68-positive cells (overall statement) (CD68-positive cells [4]) | number of CD68-positive cells at the administration site (CD68-positive cells [4]; [6]) | number of CD68-positive cells at the administration site (CD68-positive cells [4]; [7]) | wound healing-promoting effect (score divided by the score for physiological saline) [3, 8] | number of PPAR-γ-positive cells at the administration site (PPAR-γ-positive cells [5]) | increase in the number of PPAR-γ-positive cells at the administration site (PPAR-γ-positive cells [5]) |
| --- | --- | --- | --- | --- | --- | --- | --- | --- | --- |
| lactoferrin | did not increase | did not increase | did not exhibit a significant promoting effect | – | – | – | – | – | – |
| CCCCC/C=C\C/C=C\CCCCCCCC(=O)O [linoleic acid] | – | – | – | did not greatly increase | increased | did not remarkably increase | weak wound healing-promoting effect | did not remarkably increase | – |
| CCCCCCCCCCCCCCCCCC(=O)O [stearic acid] | – | – | – | – | maintained | increased | high promoting effect | increased | maintained |
| CCCCCCCC/C=C\CCCCCCCC(=O)O [oleic acid] | – | – | – | did not greatly increase | increased | did not remarkably increase | weak wound healing-promoting effect | did not remarkably increase | – |
| CCCCCCCCCCCCCC(=O)O [myristic acid] | – | – | – | – | maintained | increased | high promoting effect | increased | maintained |
| CC/C=C\C/C=C\C/C=C\CCCCCCCC(=O)O [α-linolenic acid] | – | – | – | did not greatly increase | increased | did not remarkably increase | weak wound healing-promoting effect | did not remarkably increase | – |
